Measurements from patent publication US11186817B2, “Chemically defined cell culture media additive” (IUCF-HYU (INDUSTRY-UNIVERSITY COOPERATION FOUNDATION …, priority 2014, dated 2021).

Test system: CHO DG44 cell line
Assay: Cell line growth in HY-CDM media supplemented with DHF
Type: cell-based, Chinese hamster
Text: 1. Cell line and media: CHO DG44 cell line was used as a DHFR-deficient cell line. The cell line was passaged 80 times or more and suspension adapted in HY-CDM (in-house) media as chemically defined media. The suspension-adapted cell line was used to evaluate the influence of tetrahydrofolate (THF) and dihydrofolate (DHF) and the growth characteristics in commercial chemically defined media. The HY-CDM media were composed of chemically defined components only. Each HY-CDM medium further included a growth factor. HY-CDM media used in Examples 1, 3, and 4 were free of an animal derived lipid mixture, and HY-CDM media used in Example 2 were supplemented with cod liver oil.
2. Cell suspension culture: The cell line was inoculated at a density of 4×10^5 cells/ml and cultured in an Erlenmeyer flask with a 30 ml/125 ml working volume on an orbital shaker at 120 rpm under humidified conditions at 37° C. and 5% CO2. Before inoculation, the cells were centrifuged at 1,000 rpm (×162 g) for 5 min, the supernatant was discarded, and the remaining cells were dispersed into single cells in the heated medium. The cells were passaged three times to minimize the influence of the remaining medium under the experimental conditions. The subcultured cells were evaluated.
3. Density of live cells: The density of live cells was analyzed using a hemocytometer (Neubauer improved bright-line, Marienfeld, Germany), an inverted microscope (CK30, Olympus, Japan), and trypan blue dye exclusion.
DHF was used at the same concentrations as THF. The addition of DHF at concentrations of […] improved cell growth by 11% and 24%, respectively (Table 8), which were about 7 times lower than the addition of THF.

Nc1nc(=O)c2c([nH]1)NCC(CNc1ccc(C(=O)N[C@@H](CCC(=O)O)C(=O)O)cc1)=N2 [DHF, dihydrofolate]
Increment compared to control (DHF 1.8 μM): 1.5%
Maximum cell concentration, Average (DHF 1.8 μM): 18.0 ×10^5 cells/ml
Increment compared to control (DHF 3.6 μM): 11.1%
Maximum cell concentration, Average (DHF 3.6 μM): 19.7 ×10^5 cells/ml
Cell growth improvement lower than with the addition of THF (DHF 3.6 μM and 35.9 μM): about 7 times
Increment compared to control (DHF 35.9 μM): 24.1%
Maximum cell concentration, Average (DHF 35.9 μM): 22.0 ×10^5 cells/ml
Improved cell growth (DHF 3.6 M): 11%
Improved cell growth (DHF 35.9 M): 24%
